Test: molar heat capacity at saturation pressure

CCCCn1cc[n+](C)c1.Cc1ccc(S(=O)(=O)[O-])cc1 [1-butyl-3-methylimidazolium tosylate]
Settings | molar heat capacity [J/K/mol]
283.38 K, Crystal 1 | 400.74
283.57 K, Crystal 1 | 401.36
284.36 K, Metastable crystal | 414.71
285.22 K, Crystal 1 | 405.4
285.23 K, Crystal 1 | 405.09
285.41 K, Crystal 1 | 405.71
286.18 K, Metastable crystal | 418.44
287.05 K, Crystal 1 | 409.74
287.07 K, Crystal 1 | 409.12
287.24 K, Crystal 1 | 410.37
288 K, Metastable crystal | 422.47
288.87 K, Crystal 1 | 414.71
288.9 K, Crystal 1 | 414.09
289.06 K, Crystal 1 | 415.64
289.81 K, Metastable crystal | 426.82
290.68 K, Crystal 1 | 419.06
290.72 K, Crystal 1 | 418.75
290.87 K, Crystal 1 | 419.99
291.62 K, Metastable crystal | 431.16
292.49 K, Crystal 1 | 423.71
292.53 K, Crystal 1 | 423.4
292.67 K, Crystal 1 | 424.02
293.42 K, Metastable crystal | 435.51
294.29 K, Crystal 1 | 427.13
294.33 K, Crystal 1 | 428.06
294.47 K, Crystal 1 | 427.44
295.21 K, Metastable crystal | 439.86
296.09 K, Crystal 1 | 431.47
296.13 K, Crystal 1 | 432.72
296.27 K, Crystal 1 | 432.09
296.99 K, Metastable crystal | 445.13
297.87 K, Crystal 1 | 436.13
297.92 K, Crystal 1 | 437.06
298.05 K, Crystal 1 | 436.75
298.77 K, Metastable crystal | 450.1
299.66 K, Crystal 1 | 440.79
299.71 K, Crystal 1 | 442.65
299.83 K, Crystal 1 | 442.03
300.21 K, Crystal 1 | 440.48
300.54 K, Metastable crystal | 455.38
301.54 K, Crystal 1 | 446.68
301.6 K, Crystal 1 | 447.93
301.72 K, Crystal 1 | 447.62
302.1 K, Crystal 1 | 445.44
302.41 K, Metastable crystal | 461.89
303.54 K, Crystal 1 | 452.58
303.6 K, Crystal 1 | 453.2
303.71 K, Crystal 1 | 453.82
304.1 K, Crystal 1 | 451.03
304.39 K, Metastable crystal | 469.03
305.52 K, Crystal 1 | 458.79
305.59 K, Crystal 1 | 460.34
305.69 K, Crystal 1 | 460.03
306.09 K, Crystal 1 | 457.24
306.36 K, Metastable crystal | 476.79
307.5 K, Crystal 1 | 465.93
307.57 K, Crystal 1 | 467.79
307.67 K, Crystal 1 | 467.17
308.07 K, Crystal 1 | 463.76
308.32 K, Metastable crystal | 485.8
309.47 K, Crystal 1 | 473.69
309.54 K, Crystal 1 | 474.93
309.64 K, Crystal 1 | 475.24
310.04 K, Crystal 1 | 471.52
310.26 K, Metastable crystal | 496.04
311.42 K, Crystal 1 | 482.69
311.49 K, Crystal 1 | 484.55
311.59 K, Crystal 1 | 484.24
311.76 K, Metastable crystal | 501.63
311.99 K, Crystal 1 | 479.59
313.37 K, Crystal 1 | 492.63
313.44 K, Crystal 1 | 494.8
313.53 K, Crystal 1 | 493.56
313.67 K, Metastable crystal | 515.91
313.94 K, Crystal 1 | 489.21
315.3 K, Crystal 1 | 503.49
315.37 K, Crystal 1 | 505.97
315.46 K, Crystal 1 | 503.18
315.56 K, Metastable crystal | 532.05
315.87 K, Crystal 1 | 499.45
317.22 K, Crystal 1 | 514.97
317.29 K, Crystal 1 | 518.39
